Results reported in patent publication US9687479B2, “Multisubstituted aromatic compounds as serine protease inhibitors” (VERSEON CORPORATION, priority 2013, dated 2017).

Assays:
Human KLKB1 = Human KLKB1 (Homo sapiens (Human), UniProt P03952); assay: KLKB1 kallikrein activity inhibition assay (chromogenic substrate S-2302); format: biochemical
Method: The KLKB1 kallikrein activity reported herein (e.g., Tables B, C, and D) was obtained as follows. Human KLKB1 protein was obtained from Enzyme Research Labs. […] KLKB1 was assayed in buffer containing 0.05 M Tris (pH 7.4), 0.01 M NaCl and 0.2% w/v PEG-8000. The final concentration of enzyme used was 3 nM KLKB1. […] All assays were performed in 96-well microtiter plates at room temperature (RT). […] Inhibitor IC50 values were determined by adding test compound as ten point, three-fold serial dilutions in buffer solution, as known in the art. The plate was read at 10 minutes after substrate addition. The IC50 was calculated by plotting the percent (%) inhibition against compound concentration and fitting the data to a constrained four parameter sigmoidal curve, as known in the art.

Human thrombin = Human thrombin (Homo sapiens (Human), UniProt P00734); assay: Thrombin protease activity inhibition assay (chromogenic substrate S-2238); format: biochemical; conditions: 3 nM thrombin, 125 μM S-2238, 10 min pre-incubation, RT
Outline: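 Thrombin at 3 nM final in 0.05 M Tris pH 7.4, 0.015 M NaCl, 0.01% PEG-8000, at room temperature; compounds as ten-point three-fold dilutions.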

[1] = 3 nM KLKB1, 250 μM S-2302, 10 min pre-incubation, RT

Chain of Human KLKB1 (P03952 391-638 limits assumed): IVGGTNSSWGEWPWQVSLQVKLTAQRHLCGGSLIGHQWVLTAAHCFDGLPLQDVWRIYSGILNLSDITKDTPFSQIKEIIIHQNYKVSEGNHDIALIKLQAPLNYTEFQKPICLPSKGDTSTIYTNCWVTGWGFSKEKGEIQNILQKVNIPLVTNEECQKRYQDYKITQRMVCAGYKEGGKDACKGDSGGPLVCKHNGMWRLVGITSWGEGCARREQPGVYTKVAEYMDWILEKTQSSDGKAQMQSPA
Chain of Human KLKB1 (P03952 20-390 partner limits assumed): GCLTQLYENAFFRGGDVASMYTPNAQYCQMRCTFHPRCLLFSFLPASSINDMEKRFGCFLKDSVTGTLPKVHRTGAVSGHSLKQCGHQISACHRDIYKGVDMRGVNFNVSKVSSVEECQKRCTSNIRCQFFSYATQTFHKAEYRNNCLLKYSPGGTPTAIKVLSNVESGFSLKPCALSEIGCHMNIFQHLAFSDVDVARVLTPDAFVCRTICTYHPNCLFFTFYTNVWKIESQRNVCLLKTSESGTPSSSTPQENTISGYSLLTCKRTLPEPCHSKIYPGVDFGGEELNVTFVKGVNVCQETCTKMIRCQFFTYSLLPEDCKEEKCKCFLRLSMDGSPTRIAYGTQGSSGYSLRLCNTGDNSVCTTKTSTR

| SMILES | IC50 (Human KLKB1; Table C) [µM] | also measured |
| --- | --- | --- |
| CC(C)CC(=O)n1nc(-c2ccncc2)nc1NCc1ccccc1 [Cmpd 353] | > 100 | – |
| CCC(=O)n1nc(-c2cccnc2)nc1NCc1ccccc1 [Cmpd 349] | 10 to 100 | – |
| O=C(c1ccco1)n1nc(-c2ccncc2)nc1NCc1ccccc1 [Cmpd 400] | 1 to 10 | – |
| Cc1cc(N(C)c2ccccc2F)nc(N[C@@H]2CCc3c(N)cccc3C2)n1 [Cmpd 419, 2-N-[(2R)-5-amino-1,2,3,4-tetrahydronaphthalen-2-yl]-4-N-(2-fluorophenyl)-4-N,6-dimethylpyrimidine-2,4-diamine] | – | IC50 (Human KLKB1; [1]): > 100 µM |
| CC(C)(CO)C(=O)n1nc(C2CCOCC2)c(F)c1NCc1ccc(Cl)s1 [Cmpd 273] | – | IC50 (Human KLKB1; Table B): 10 to 100 µM |
| CCCC(=O)n1nc(-c2ccccn2)nc1NCc1ccc(F)cc1 [Cmpd 306] | 10 to 100 | – |
| O=C(c1ccoc1)n1nc(-c2ccccn2)nc1NCc1ccccc1 [Cmpd 401] | > 100 | – |
| CC(C)(C)C(=O)n1nc(-c2ccncc2)nc1NCc1ccccc1 [Cmpd 350] | > 100 | – |
| CCCC(=O)n1nc(-c2ccncc2)nc1NCc1ccccc1 [Cmpd 355] | > 100 | – |
| Fc1ccc(CNc2nc(-c3ccccn3)nn2-c2nc3ccccc3s2)cc1 [Cmpd 299] | > 100 | – |
| O=C(Oc1ccccc1)n1nc(-c2cccnc2)nc1NCc1ccc(F)cc1 [Cmpd 409] | > 100 | – |
| O=C(c1ccoc1)n1nc(-c2ccccn2)nc1NCc1ccc(F)cc1 [Cmpd 371] | 1 to 10 | – |
| O=C(c1ccco1)n1nc(-c2ccccn2)nc1NCc1ccc(F)cc1 [Cmpd 369] | 1 to 10 | – |
| COc1ccc(CNc2nc(-c3cccnc3)nn2C(=O)CC(C)C)cc1 [Cmpd 328] | > 100 | – |
| CC(C)C(=O)n1nc(-c2ccncc2)nc1NCc1ccc(F)cc1 [Cmpd 315] | 10 to 100 | – |
| COc1ccc(CNc2nc(-c3ccncc3)nn2C(=O)c2ccco2)cc1 [Cmpd 337] | > 100 | – |
| O=C(c1ccoc1)n1nc(-c2ccncc2)nc1NCc1ccc(F)cc1 [Cmpd 373] | > 100 | – |
| CCC(=O)n1nc(-c2ccccc2)cc1NCc1ccc(F)cc1 [Cmpd 268] | – | IC50 (Human KLKB1; Table B): > 100 µM |
| O=C(NCc1ccc2[nH]cc(Cl)c2c1)[C@H]1CC(=O)N(Cc2cccc(Cl)c2)C1 [Cmpd 418, (3S)-N-[(3-chloro-1H-indol-5-yl)methyl]-1-[(3-chlorophenyl)methyl]-5-oxopyrrolidine-3-carboxamide] | – | IC50 (Human KLKB1; [1]): > 100 µM |

| SMILES | IC50 (Human KLKB1; Table C) [µM] | also measured |
| --- | --- | --- |
| O=C(c1cccs1)n1nc(-c2ccncc2)nc1NCc1ccccc1 [Cmpd 406] | > 100 | – |
| COc1ccccc1C(=O)n1nc(-c2ccccc2)nc1NCc1ccsc1 [Cmpd 335] | 10 to 100 | – |
| Cc1cc(N(C)c2ccc(F)cc2)nc(N[C@@H]2CCc3c(N)cccc3C2)n1 [Cmpd 421, 2-N-[(2R)-5-amino-1,2,3,4-tetrahydronaphthalen-2-yl]-4-N-(4-fluorophenyl)-4-N,6-dimethylpyrimidine-2,4-diamine] | – | IC50 (Human KLKB1; [1]): > 100 µM |
| COc1ccc(CNc2nc(-c3cccnc3)nn2C(=O)c2ccoc2)cc1 [Cmpd 339] | > 100 | – |
| COc1ccccc1C(=O)n1nc(C2CCN(C(=O)OC(C)(C)C)CC2)nc1NCc1ccc(Cl)s1 [Cmpd 412] | 0.1 to 1 | – |
| COc1ccccc1C(=O)n1nc(-c2cccs2)nc1NCc1ccccc1 [Cmpd 398] | 1 to 10 | – |
| CC(C)(C)C(=O)n1nc(-c2ccco2)nc1NCc1ccc(F)cc1 [Cmpd 300] | 10 to 100 | – |
| CC(C)(C)C(=O)n1nc(-c2ccco2)nc1NCc1ccccc1 [Cmpd 342] | > 100 | – |
| O=C(c1ccsc1)n1nc(-c2cccnc2)nc1NCc1ccc(F)cc1 [Cmpd 377] | 0.1 to 1 | – |
| O=C(c1ccccc1Cl)n1nc(-c2cccs2)nc1NCc1ccccc1 [Cmpd 396] | 0.1 to 1 | – |
| O=C(c1cccs1)n1nc(-c2ccccn2)nc1NCc1ccccc1 [Cmpd 404] | 1 to 10 | – |
| CC(C)OC(=O)n1nc(-c2cccnc2)nc1NCc1ccc(F)cc1 [Cmpd 410] | > 100 | – |
| O=C(c1ccsc1)n1nc(-c2ccccn2)nc1NCc1ccc(F)cc1 [Cmpd 375] | 0.1 to 1 | – |
| O=C(c1ccoc1)n1nc(-c2ccncc2)nc1NCc1ccccc1 [Cmpd 402] | 10 to 100 | – |
| O=C(c1ccccc1)n1nc(-c2ccncc2)nc1NCc1ccccc1 [Cmpd 363] | 0.1 to 1 | – |
| COc1ccc(CNc2nc(-c3ccccn3)nn2C(=O)C(C)C)cc1 [Cmpd 320] | > 100 | – |
| CC(C)(C)C(=O)n1nc(-c2ccco2)cc1NCc1ccc(Cl)s1 [Cmpd 270] | – | IC50 (Human KLKB1; Table B): > 100 µM |
| COc1ccc(CNc2nc(-c3cccnc3)nn2C(=O)CCc2ccccc2)cc1 [Cmpd 329] | > 100 | – |
| CC(C)(C)C(=O)n1nc(-c2ncccc2F)cc1NCc1ccc(Cl)s1 [Cmpd 269] | – | IC50 (Human KLKB1; Table B): > 100 µM |

| SMILES | IC50 (Human KLKB1; Table C) [µM] | also measured |
| --- | --- | --- |
| CCCC(=O)n1nc(-c2ccccn2)nc1NCc1ccc(OC)cc1 [Cmpd 324] | 10 to 100 | – |
| COc1ccccc1C(=O)n1nc(C2CCOCC2)nc1NCc1ccc(Cl)s1 [Cmpd 385] | 0.1 to 1 | – |
| COc1ccccc1C(=O)n1nc(C2CN(C(=O)OC(C)(C)C)C2)nc1NCc1ccc(Cl)s1 [Cmpd 411] | 0.1 to 1 | – |
| CCCC(=O)n1nc(-c2cccnc2)nc1NCc1ccc(OC)cc1 [Cmpd 330] | 10 to 100 | – |
| CC(C)(C)C(=O)n1nc(-c2ccccn2)cc1NCc1ccco1 [Cmpd 280, 1-5-[(furan-2-ylmethyl)amino]-3-(pyridin-2-yl)-1H-pyrazol-1-yl-2,2-dimethylpropan-1-one] | – | IC50 (Human KLKB1; Table B): > 100 µM |
| Cc1cc(N(C)c2cccc(Cl)c2)nc(N[C@H]2CCc3c(N)cccc3C2)n1 [Cmpd 424, 2-N-[(2S)-5-amino-1,2,3,4-tetrahydronaphthalen-2-yl]-4-N-(3-chlorophenyl)-4-N,6-dimethylpyrimidine-2,4-diamine] | – | IC50 (Human KLKB1; [1]): > 100 µM |
| COc1ccc(CNc2nc(-c3ccccn3)nn2C(=O)c2cccs2)cc1 [Cmpd 379] | > 100 | – |
| CC(C)(C)C(=O)n1nc(-c2cccs2)nc1NCc1ccccc1 [Cmpd 357] | > 100 | – |
| COc1ccc(CNc2nc(-c3cccnc3)nn2C(=O)C(C)(C)C)cc1 [Cmpd 326] | > 100 | – |
| O=C(CCc1ccccc1)n1nc(-c2cccnc2)nc1NCc1ccc(F)cc1 [Cmpd 313] | 10 to 100 | – |
| CC(C)(C)OC(=O)n1nc(-c2cccnc2)nc1NCc1ccc(F)cc1 [Cmpd 413] | > 100 | – |
| O=C(c1ccc(Cl)cc1)n1nc(-c2ccccn2)nc1NCc1ccccc1 [Cmpd 399] | 0.1 to 1 | – |
| O=C(c1ccoc1)n1nc(-c2ncccc2F)cc1NCc1ccc(Cl)s1 [Cmpd 291] | – | IC50 (Human KLKB1; Table B): > 100 µM |
| COc1ccccc1C(=O)n1nc(-c2cncnc2)nc1NCc1ccccc1 [Cmpd 17] | 0.1 to 1 | – |
| COc1ccccc1C(=O)n1nc(C2CCN(C(=O)C(C)(C)C)CC2)nc1NCc1ccc(Cl)s1 [Cmpd 341] | 0.1 to 1 | – |
| O=c1c(-c2cc(NCc3ccc(Cl)s3)[nH]n2)cccn1Cc1ccccc1 [Cmpd 54, 1-benzyl-3-(5-[(5-chlorothiophen-2-yl)methyl]amino-1H-pyrazol-3-yl)-1,2-dihydropyridin-2-one] | – | IC50 (Human thrombin): 1 to 10 µM |
| CC(C)(C)c1ccc(C(=O)n2nc(-c3ccc[nH]c3=O)cc2NCc2ccc(Cl)s2)cc1 [Cmpd 253, 3-1-[(4-tert-butylphenyl)carbonyl]-5-[(5-chlorothiophen-2-yl)methyl]amino-1H-pyrazol-3-yl-1,2-dihydropyridin-2-one] | – | IC50 (Human thrombin): < 0.1 µM |
| O=C(c1ccoc1)n1nc(-c2cccn(Cc3ccc(Cl)cc3)c2=O)cc1NCc1ccc(Cl)s1 [Cmpd 37, 1-[(4-chlorophenyl)methyl]-3-(5-[(5-chlorothiophen-2-yl)methyl]amino-1-[(furan-3-yl)carbonyl]-1H-pyrazol-3-yl)-1,2-dihydropyridin-2-one] | – | IC50 (Human thrombin): < 0.1 µM |
